In US7550438B2, “Methods for production of growth-promoting proteins and peptides for kidney epithelial cells” (The University of Chicago, priority 1997, dated 2009):

Key:
[1] = system: kidneys of rats given mercuric chloride; assay: BrdU labeling of DNA synthesis in kidneys of rats given mercuric chloride; format: in vivo, rat; conditions: 14-Ser 100 μg 24 hours before mercuric chloride; 1 hour BrdU labeling 24 hours after
Method: To determine if the beneficial effects of 14-Ser peptide on survival and renal function were the result of the mitogenic action of the peptide, DNA synthesis was measured in the kidneys of rats given mercuric chloride. 5-Bromo-2′-deoxyuridine (BrdU), a nonradioactive analog of thymidine that is incorporated into DNA was used to label nuclei. A monoclonal antibody to BrdU and diamidobenzidene staining were used to detect nuclei undergoing DNA synthesis in histological sections of renal tissue. BrdU was dissolved in 20% ethanol and was injected intra-peritoneally 23 hours after administration of mercuric chloride. One hour later the kidneys were quickly perfused with a warm solution of phosphate-buffered saline via an aortic catheter to eliminate red blood cells from the organ and maintain potency of the renal tubules. The capsule was removed from the kidneys which were the bisected longitudinally, and fixed in formalin for 4 hours, and then in 70% ethanol. Tissue sections were prepared and BrdU-labeled nuclei were detected as described above.
In the kidneys of a rats given mercuric chloride, extensive necrosis of tubular cells of the terminal portion (S3) of the proximal nephron was observed, as expected in this well-characterized model system. The extent of necrosis was somewhat variable from rat-to-rat but was always confined to the aglomerular cortex. […]

BSC-1 cells = assay: Inhibition of WGF and WGF-derived peptide mitogenesis in BSC-1 cells; format: cell-based, African green monkey; conditions: TGF-β2 6 ng/ml; exogenous 14-Ser up to 5 μg/ml
Text: In these studies the pentamers, PQGNH (SEQ ID NO: 36) or YPQGN (SEQ ID NO: 3) were synthesized, purified by HPLC and then assayed for growth-promoting activity. […] Because the pentamers are not mitogenic, when they bind to the site, growth is not observed. After pentamers are bound to the site, the pentamers appear to prevent the hexapeptide from gaining access to the membrane.
Transforming growth factor (TGF)-β2 is an autocrine growth inhibitor secreted by BSC-1 cells that limits proliferation in culture. Exogenous TGF-β2 was added to the culture medium to determine its capacity to inhibit the growth-promoting effect of 14-Ser. TGF-β2 at a concentration of 1 ng/ml was sufficient to abolish the 25% stimulation of growth induced by 14-Ser. At a TGF-β2 concentration of 2 ng/ml, growth was inhibited by 30% in the presence or absence of 14-Ser; at 10 ng/ml, inhibition was 60%.
Because TGF-β2 inhibits proliferation induced by diverse mitogens, a more specific inhibitor was sought. […] Cells were preincubated for 30 minutes with the pentapeptide YPQGN (SEQ ID NO: 3). The culture medium was then aspirated, the monolayer was rinsed, fresh medium was added, and the number of cells counted 4 days later. Preincubation of cells with YPQGN (SEQ ID NO: 3) inhibited the mitogenic effect of the 6-amino acid peptide.

AQPYPQGNHEASYG
BrdU-labeled nuclei adjacent to the zone of tubular cell necrosis [1]: many more labeled nuclei | reversal of TGF-β2 growth inhibition (BSC-1 cells): did not reverse growth inhibition
